Data as given in the supplement of paper PMC11061612.

Key:
Experiment in all cases: combination Emax (second highest fraction inhibited in the dose matrix, 72 h); higher = more inhibition; extreme values may be limits of the assay
786-0 (Kidney Carcinoma) = tested on: 786-0 (Kidney Carcinoma)
How it was run: (§1)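 Cell lines grown in DMEM/F12 or RPMI with 10% FBS were plated in 1536-well plates and held 24 hours at 37°C, 5% CO2 before 72 hours of exposure to two-drug dose matrices, with DMSO typically at 0.2%. CellTiter-Glo 2.0 luminescence gave viability, which was converted to inhibition. Vehicle wells were set to 0 and blank wells to 1. Combination Emax is the second-highest inhibition in the matrix, and Bliss excess is the observed combination effect minus the expected EA + EB − EA·EB, where EA and EB are the single-agent effects.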

[1] = tested on: AN3-CA (Endometrial Carcinoma)
How it was run: as §1

[2] = tested on: BALL-1 (B-Lymphoblastic Leukemia)
How it was run: as §1

[3] = tested on: Becker (Low Grade Glioma)
How it was run: as §1

[4] = tested on: Calu-6 (Non-Small Cell Lung Carcinoma)
How it was run: as §1

[5] = tested on: Caov-3 (Ovarian Carcinoma)
How it was run: as §1

[6] = tested on: EB-3 (Burkitt's Lymphoma)
How it was run: as §1

[7] = tested on: HTC-C3 (Thyroid Gland Carcinoma)
How it was run: as §1

[8] = tested on: JHH-1 (Hepatocellular Carcinoma)
How it was run: as §1

[9] = tested on: KYSE-70 (Esophageal Squamous Cell Carcinoma)
How it was run: as §1

[10] = tested on: LAMA-84 (Chronic Myelogenous Leukemia)
How it was run: as §1

[11] = tested on: LOUCY (T-Lymphoblastic Leukemia)
How it was run: as §1

[12] = tested on: NCI-H1563 (Lung Adenocarcinoma)
How it was run: as §1

[13] = tested on: NCI-H810 (Non-Small Cell Lung Carcinoma)
How it was run: as §1

[14] = tested on: PANC-02-03 (Pancreatic Carcinoma)
How it was run: as §1

[15] = tested on: RERF-LC-KJ (Lung Adenocarcinoma)
How it was run: as §1

[16] = tested on: RMG-I (Ovarian Carcinoma)
How it was run: as §1

[17] = tested on: RPMI-8866 (Chronic Myelogenous Leukemia)
How it was run: as §1

[18] = tested on: SJRH30 (Rhabdomyosarcoma)
How it was run: as §1

[19] = tested on: SNU-175 (Colorectal Carcinoma)
How it was run: as §1

Row | SMILES | combination Emax (786-0 (Kidney Carcinoma)) | combination Emax [1] | combination Emax [2] | combination Emax [3] | combination Emax [4] | combination Emax [5] | combination Emax [6] | combination Emax [7] | combination Emax [8] | combination Emax [9] | combination Emax [10] | combination Emax [11] | combination Emax [12] | combination Emax [13] | combination Emax [14] | combination Emax [15] | combination Emax [16] | combination Emax [17] | combination Emax [18] | combination Emax [19]
1 | Cc1cc2ncnn2cc1Nc1ncc2c(n1)n(C1CCOCC1)c(=O)n2C [AZD7648] + CCN(CCO)CCCOc1ccc2c(Nc3cc(CC(=O)Nc4cccc(F)c4)[nH]n3)ncnc2c1 [AZD2811] (first compound max 10 µM, 7x7, partner max 1 µM) | 0.215 | 0.354 | 0.53 | 0.214 | 0.317 | 0.885 | 0.554 | 0.202 | 0.113 | 0.238 | 0.336 | 0.948 | 0.555 | 0.643 | 0.254 | 0.455 | 0.466 | 0.732 | 0.24 | 0.646
2 | C=CCn1c(=O)c2cnc(Nc3ccc(N4CCN(C)CC4)cc3)nc2n1-c1cccc(C(C)(C)O)n1 [AZD1775] + C[C@@H]1COCCN1C2=NC(=NC(=C2)C3(CC3)[S@](=N)(=O)C)C4=C5C=CNC5=NC=C4 [AZD6738] (first compound max 1 µM, partner max 10 µM) | 0.888 | 0.714 | 0.988 | 0.678 | 0.808 | 0.762 | 0.855 | 0.882 | 0.642 | 0.656 | 0.993 | 1 | 0.446 | 0.975 | 0.728 | 0.413 | 0.686 | 0.989 | 0.962 | 0.702
3 | CN(C)CCCOc1ccc(-c2ccc3ncc4c(c3c2)n(C2CCOCC2)c(=O)n4C)cn1 [AZD0156] + C[C@@H]1COCCN1C2=NC(=NC(=C2)C3(CC3)[S@](=N)(=O)C)C4=C5C=CNC5=NC=C4 [AZD6738] (first compound max 1 µM, 7x7, partner max 10 µM) | 0.641 | 0.491 | 0.986 | 0.579 | 0.777 | 0.663 | 0.763 | 0.823 | 0.596 | 0.397 | 0.97 | 1 | 0.385 | 0.762 | 0.579 | 0.225 | 0.528 | 0.967 | 0.894 | 0.49
4 | CC1(C)CCC(CN2CCN(c3ccc(C(=O)NS(=O)(=O)c4ccc(NCC5CCOCC5)c([N+](=O)[O-])c4)c(Oc4cnc5[nH]ccc5c4)c3)CC2)=C(c2ccc(Cl)cc2)C1 [Venetoclax] + C[C@@H](Nc1cc(F)cc(F)c1)c1cc(C(=O)N(C)C)cc2c(=O)cc(N3CCOCC3)oc12 [AZD8186] (first compound max 1 µM, 7x7, partner max 3 µM) | 0.267 | 0.457 | 1 | 0.418 | 0.125 | 0.797 | 0.198 | 0.149 | 0.172 | 0.0812 | 0.313 | 1 | 0.431 | 0.0592 | 0.147 | 0.195 | 0.277 | 0.594 | 0.0499 | 0.171
5 | CCN(CCO)CCCOc1ccc2c(Nc3cc(CC(=O)Nc4cccc(F)c4)[nH]n3)ncnc2c1 [AZD2811] + C=CCn1c(=O)c2cnc(Nc3ccc(N4CCN(C)CC4)cc3)nc2n1-c1cccc(C(C)(C)O)n1 [AZD1775] (first compound max 1 µM, partner max 1 µM) | 0.546 | 0.308 | 0.986 | 0.167 | 0.727 | 0.846 | 0.62 | 0.3 | 0.335 | 0.549 | 0.917 | 1 | 0.245 | 0.886 | 0.538 | 0.312 | 0.256 | 1 | 0.827 | 0.637
6 | CCc1c2c(nc3ccc(O)cc13)-c1cc3c(c(=O)n1C2)COC(=O)[C@]3(O)CC [SN-38] + CN(C)CCCOc1ccc(-c2ccc3ncc4c(c3c2)n(C2CCOCC2)c(=O)n4C)cn1 [AZD0156] (first compound max 0.3 µM, 7x7, partner max 1 µM) | 0.884 | 0.325 | 1 | 0.847 | 0.762 | 0.977 | 0.748 | 0.764 | 0.316 | 0.25 | 0.94 | 0.759 | 0.441 | 0.51 | 0.693 | 0.673 | 0.446 | 0.982 | 0.359 | 0.478
7 | Cc1c2c(nn1C)CSCc1cc(n(C)n1)CSc1cc(c3ccccc3c1)OCCCc1c(C(=O)O)n(C)c3c-2c(Cl)ccc13 [AZD5991] + Cn1cnc2c(F)c(Nc3ccc(Br)cc3Cl)c(C(=O)NOCCO)cc21 [Selumetinib] (first compound max 1 µM, 7x7, partner max 3 µM) | 0.251 | 0.311 | 0.271 | 0.274 | 0.635 | 0.501 | 0.138 | 0.598 | 0.663 | 0.188 | 0.912 | 0.595 | 0.551 | 0.322 | 0.524 | 0.516 | 0.41 | 0.502 | 0.512 | 0.714
8 | COc1cccc(OCCCN)c1-c1cc(Nc2cnc(C#N)cn2)n[nH]1 [Prexasertib] + Cc1cc2ncnn2cc1Nc1ncc2c(n1)n(C1CCOCC1)c(=O)n2C [AZD7648] (first compound max 1 µM, 7x7, partner max 10 µM) | 0.896 | 0.843 | 0.999 | 0.707 | 0.796 | 0.797 | 0.791 | 0.843 | 0.559 | 0.615 | 0.99 | 1 | 0.466 | 0.896 | 0.609 | 0.416 | 0.678 | 1 | 0.935 | 0.586
9 | Cc1c2c(nn1C)CSCc1cc(n(C)n1)CSc1cc(c3ccccc3c1)OCCCc1c(C(=O)O)n(C)c3c-2c(Cl)ccc13 [AZD5991] + CCN(CCO)CCCOc1ccc2c(Nc3cc(CC(=O)Nc4cccc(F)c4)[nH]n3)ncnc2c1 [AZD2811] (first compound max 1 µM, 7x7, partner max 1 µM) | 0.35 | 0.584 | 0.875 | 0.147 | 0.361 | 0.896 | 0.35 | 0.235 | 0.517 | 0.315 | 0.636 | 0.983 | 0.517 | 0.981 | 0.269 | 0.584 | 0.303 | 0.764 | 0.663 | 0.96
10 | C=CCn1c(=O)c2cnc(Nc3ccc(N4CCN(C)CC4)cc3)nc2n1-c1cccc(C(C)(C)O)n1 [AZD1775] + O=C(c1cc(Cc2n[nH]c(=O)c3ccccc23)ccc1F)N1CCN(C(=O)C2CC2)CC1 [Olaparib] (first compound max 1 µM, partner max 10 µM) | 0.543 | 0.339 | 0.985 | 0.216 | 0.708 | 0.716 | 0.73 | 0.365 | 0.328 | 0.655 | 0.943 | 1 | 0.215 | 0.926 | 0.667 | 0.276 | 0.365 | 0.977 | 0.777 | 0.447
11 | Cc1c2c(nn1C)CSCc1cc(n(C)n1)CSc1cc(c3ccccc3c1)OCCCc1c(C(=O)O)n(C)c3c-2c(Cl)ccc13 [AZD5991] + Cc1cc2ncnn2cc1Nc1ncc2c(n1)n(C1CCOCC1)c(=O)n2C [AZD7648] (first compound max 1 µM, 7x7, partner max 10 µM) | 0.251 | 0.654 | 0.556 | 0.177 | 0.29 | 0.388 | 0.456 | 0.245 | 0.35 | 0.159 | 0.22 | 0.82 | 0.701 | 0.514 | 0.183 | 0.48 | 0.344 | 0.533 | 0.478 | 0.461
12 | CN(C)CCCOc1ccc(-c2ccc3ncc4c(c3c2)n(C2CCOCC2)c(=O)n4C)cn1 [AZD0156] + CCN(CCO)CCCOc1ccc2c(Nc3cc(CC(=O)Nc4cccc(F)c4)[nH]n3)ncnc2c1 [AZD2811] (first compound max 1 µM, 7x7, partner max 1 µM) | 0.118 | 0.27 | 0.634 | 0.0601 | 0.328 | 0.809 | 0.425 | 0.0862 | 0.108 | 0.161 | 0.296 | 0.929 | 0.311 | 0.542 | 0.163 | 0.359 | 0.093 | 0.61 | 0.125 | 0.604
13 | COc1cccc2c1C(=O)c1c(O)c3c(c(O)c1C2=O)C[C@@](O)(C(=O)CO)C[C@@H]3O[C@H]1C[C@H](N)[C@H](O)[C@H](C)O1 [Doxorubicin] + Cc1cc2ncnn2cc1Nc1ncc2c(n1)n(C1CCOCC1)c(=O)n2C [AZD7648] (first compound max 1 µM, 7x7, partner max 10 µM) | 0.82 | 0.501 | 0.99 | 0.555 | 0.516 | 0.826 | 0.919 | 0.427 | 0.353 | 0.502 | 0.822 | 0.943 | 0.58 | 0.756 | 0.506 | 0.711 | 0.599 | 0.996 | 0.925 | 0.823
